Legend:
RS4;11 cells = assay: Cell viability assay (CellTiter-Glo) in RS4;11 cell line; assay type: cell-based; details: 24 hours, 10% Human Serum, 50% decrease in cell viability
Text: (§1) The acute lymphoblastic leukemia (ALL) human cell line RS4;11 (ATCC, Manassas VA) was used as the primary human cell line to assess the cellular activity of compound of the present Examples in vitro and their efficacy in vivo. BH3 profiling, a mitochondrial assay that classifies blocks in the intrinsic apoptotic pathway, has shown that RS4;11 cells were highly dependent on Bcl-2 protein for survival and were sensitive to a Bcl-2 inhibitor (Blood. 2008; 111(4):2300-2309). […] The acute lymphoblastic leukemia cell line Molt-4, which is derived from immature T-lymphoid cells (T-ALL), was used as a counter screen assay.
(§2) Frozen RS4;11 or Molt-4 cells (ATCC, Manassas, VA, USA) were thawed overnight in RPMI 1640 media (Thermo Fisher Scientific, Waltham, MA, USA) supplemented with 1% penicillin/streptomycin (Thermo Fisher Scientific, Waltham, MA, USA), and 10% Human Serum (Sigma, St. Louis, MO, USA). 3000 Cells (0.1×10^6/mL) were seeded in each well of 384-well plate and were treated for 24 hours in a humidified chamber with 5% CO2. Cell viability was determined by CellTiter-Glo as described by the manufacturer's instructions (Promega Corporation, Madison, WI, USA). Responses were determined as a percentage of the control treated cells and the effective concentration (EC50) to induce a 50% decrease in cell viability were determined from sigmoidal dose-response curves using Dotmatics (Dotmatics Software Company, Bishops Stortford, Hertfordshire, England).

Molt-4 cells = assay: Cell viability counter screen assay (CellTiter-Glo) in Molt-4 cells; assay type: cell-based; details: 24 hours, 10% Human Serum, 50% decrease in cell viability
Text: as §1, §2

Row | SMILES | EC50 (RS4;11 cells) [nM] | EC50 (Molt-4 cells) [nM]
1 | CC1(C)CC(c2ccc(Cl)cc2)=C2CN3CCN(c4ccc(C(=O)NS(=O)(=O)c5ccc(NC[C@@H]6CC[C@@H](O)CO6)c([N+](=O)[O-])c5)c(N5CCCOc6nc7[nH]ccc7cc65)c4)C[C@H]3COCCCO[C@@H]2C1 [Example 27, 4-((4aS,10aR)-14-(4-chlorophenyl)-12,12-dimethyl-1,2,4a,5,8,9,10a,11,13,15-decahydro-7H,12H-benzo[f]pyrazino[2,1-c][1,8]dioxa[4]azacycloundecin-3(4H)-yl)-2-(3,4-dihydro-2H-pyrrolo[3′,2′:5,6]pyrido[2,3-h][1,4]oxazepin-1(7H)-yl)-N-((4-((((2S,5R)-5-hydroxytetrahydro-2H-pyran-2-yl)methyl)amino)-3-nitrophenyl)sulfonyl)benzamide] | 0.329 | 535
2 | CC1(C)CC(c2ccc(Cl)cc2)=C2CN3CCN(c4ccc(C(=O)NS(=O)(=O)c5ccc(NC[C@H]6CC[C@H](N7CCOCC7)CC6)c([N+](=O)[O-])c5)c(N5CCCOc6nc7[nH]ccc7cc65)c4)C[C@H]3COCCCO[C@@H]2C1 [Example 28, 4-((4aS,10aR)-14-(4-chlorophenyl)-12,12-dimethyl-1,2,4a,5,8,9,10a,11,13,15-decahydro-7H,12H-benzo[f]pyrazino[2,1-c][1,8]dioxa[4]azacycloundecin-3(4H)-yl)-2-(3,4-dihydro-2H-pyrrolo[3′,2′:5,6]pyrido[2,3-h][1,4]oxazepin-1(7H)-yl)-N-((4-((((1r,4r)-4-morpholinocyclohexyl)methyl)amino)-3-nitrophenyl)sulfonyl)benzamide] | 0.862 | 274
3 | COC1CO[C@H](CNc2ccc(S(=O)(=O)NC(=O)c3ccc(N4CCN5CC6=C(c7ccc(Cl)cc7)CC(C)(C)C[C@H]6OCCCOC[C@@H]5C4)cc3N3CCCOc4nc5[nH]ccc5cc43)cc2[N+](=O)[O-])C1 (stereo partly drawn) [Example 29, 4-((4aS,10aR)-14-(4-chlorophenyl)-12,12-dimethyl-1,2,4a,5,8,9,10a,11,13,15-decahydro-7H,12H-benzo[f]pyrazino[2,1-c][1,8]dioxa[4]azacycloundecin-3(4H)-yl)-2-(3,4-dihydro-2H-pyrrolo[3′,2′:5,6]pyrido[2,3-b][1,4]oxazepin-1(7H)-yl)-N-((4-((((2S)-4-methoxytetrahydrofuran-2-yl)methyl)amino)-3-nitrophenyl)sulfonyl)benzamide] | 1.97 | 1890
4 | CO[C@H]1C[C@H](Nc2ccc(S(=O)(=O)NC(=O)c3ccc(N4CCN5CC6=C(c7ccc(Cl)cc7)CC(C)(C)C[C@H]6OCCCOC[C@@H]5C4)cc3N3CCCOc4nc5[nH]ccc5cc43)cc2[N+](=O)[O-])C1 [Example 30, 4-((4aS,10aR)-14-(4-chlorophenyl)-12,12-dimethyl-1,2,4a,5,8,9,10a,11,13,15-decahydro-7H,12H-benzo[f]pyrazino[2,1-c][1,8]dioxa[4]azacycloundecin-3(4H)-yl)-2-(3,4-dihydro-2H-pyrrolo[3′,2′:5,6]pyrido[2,3-b][1,4]oxazepin-1(7H)-yl)-N-((4-(((1r,3r)-3-methoxycyclobutyl)amino)-3-nitrophenyl)sulfonyl)benzamide] | 4.1 | > 10000
5 | CN1CCC(Nc2ccc(S(=O)(=O)NC(=O)c3ccc(N4CCN5CC6=C(c7ccc(Cl)cc7)CC(C)(C)C[C@H]6OCCCOC[C@@H]5C4)cc3N3CCCOc4nc5[nH]ccc5cc43)cc2[N+](=O)[O-])CC1 [Example 31, 4-((4aS,10aR)-14-(4-chlorophenyl)-12,12-dimethyl-1,2,4a,5,8,9,10a,11,13,15-decahydro-7H,12H-benzo[f]pyrazino[2,1-c][1,8]dioxa[4]azacycloundecin-3(4H)-yl)-2-(3,4-dihydro-2H-pyrrolo[3′,2′:5,6]pyrido[2,3-b][1,4]oxazepin-1(7H)-yl)-N-((4-((1-methylpiperidin-4-yl)amino)-3-nitrophenyl)sulfonyl)benzamide] | 3.24 | 1220
6 | CC1(C)CC(c2ccc(Cl)cc2)=C2CN3CCN(c4ccc(C(=O)NS(=O)(=O)c5ccc(NC[C@H]6CC[C@](C)(O)CC6)c([N+](=O)[O-])c5)c(N5CCCOc6nc7[nH]ccc7cc65)c4)C[C@H]3COCCCO[C@@H]2C1 [Example 32, 4-((4aS,10aR)-14-(4-chlorophenyl)-12,12-dimethyl-1,2,4a,5,8,9,10a,11,13,15-decahydro-7H,12H-benzo[f]pyrazino[2,1-c][1,8]dioxa[4]azacycloundecin-3(4H)-yl)-2-(3,4-dihydro-2H-pyrrolo[3′,2′:5,6]pyrido[2,3-b][1,4]oxazepin-1(7H)-yl)-N-((4-((((1r,4r)-4-hydroxy-4-methylcyclohexyl)methyl)amino)-3-nitrophenyl)sulfonyl)benzamide] | 1.67 | 9570
7 | CO[C@H]1CC[C@H](COc2ccc(S(=O)(=O)NC(=O)c3ccc(N4CCN5CC6=C(c7ccc(Cl)cc7)CC(C)(C)C[C@H]6OCCCOC[C@@H]5C4)cc3N3CCCOc4nc5[nH]ccc5cc43)cc2[N+](=O)[O-])OC1 [Example 33, 4-((4aS,10aR)-14-(4-chlorophenyl)-12,12-dimethyl-1,2,4a,5,8,9,10a,11,13,15-decahydro-7H,12H-benzo[f]pyrazino[2,1-c][1,8]dioxa[4]azacycloundecin-3(4H)-yl)-2-(3,4-dihydro-2H-pyrrolo[3′,2′:5,6]pyrido[2,3-b][1,4]oxazepin-1(7H)-yl)-N-((4-(((2R,5S)-5-methoxytetrahydro-2H-pyran-2-yl)methoxy)-3-nitrophenyl)sulfonyl)benzamide] | 3.49 | 6080
8 | CO[C@H]1CC[C@H](CNc2ccc(S(=O)(=O)NC(=O)c3ccc(N4CCN5CC6=C(c7ccc(Cl)cc7)CC(C)(C)C[C@H]6OCCCOC[C@@H]5C4)cc3N3CCCOc4nc5[nH]ccc5cc43)cc2Cl)OC1 [Example 34, N-((3-chloro-4-((((2R,5S)-5-methoxytetrahydro-2H-pyran-2-yl)methyl)amino)phenyl)sulfonyl)-4-((4aS,10aR)-14-(4-chlorophenyl)-12,12-dimethyl-1,2,4a,5,8,9,10a,11,13,15-decahydro-7H,12H-benzo[f]pyrazino[2,1-c][1,8]dioxa[4]azacycloundecin-3(4H)-yl)-2-(3,4-dihydro-2H-pyrrolo[3′,2′:5,6]pyrido[2,3-b][1,4]oxazepin-1(7H)-yl)benzamide] | 57.6 | > 10000
9 | COCCO[C@H]1CC[C@H](CNc2ccc(S(=O)(=O)NC(=O)c3ccc(N4CCN5CC6=C(c7ccc(Cl)cc7)CC(C)(C)C[C@H]6OCCCOC[C@@H]5C4)cc3N3CCCOc4nc5[nH]ccc5cc43)cc2[N+](=O)[O-])OC1 [Example 35, 4-((4aS,10aR)-14-(4-chlorophenyl)-12,12-dimethyl-1,2,4a,5,8,9,10a,11,13,15-decahydro-7H,12H-benzo[f]pyrazino[2,1-c][1,8]dioxa[4]azacycloundecin-3(4H)-yl)-2-(3,4-dihydro-2H-pyrrolo[3′,2′:5,6]pyrido[2,3-b][1,4]oxazepin-1(7H)-yl)-N-((4-((((2R,5S)-5-(2-methoxyethoxy)tetrahydro-2H-pyran-2-yl)methyl)amino)-3-nitrophenyl)sulfonyl)benzamide] | 1.47 | 1740
10 | CC1(C)CC(c2ccc(Cl)cc2)=C2CN3CCN(c4ccc(C(=O)NS(=O)(=O)c5ccc(NC[C@H]6CC[C@@](C)(O)CC6)c([N+](=O)[O-])c5)c(N5CCCOc6nc7[nH]ccc7cc65)c4)C[C@H]3COCCCO[C@@H]2C1 [Example 36, 4-((4aS,10aR)-14-(4-chlorophenyl)-12,12-dimethyl-1,2,4a,5,8,9,10a,11,13,15-decahydro-7H,12H-benzo[f]pyrazino[2,1-c][1,8]dioxa[4]azacycloundecin-3(4H)-yl)-2-(3,4-dihydro-2H-pyrrolo[3′,2′:5,6]pyrido[2,3-b][1,4]oxazepin-1(7H)-yl)-N-((4-((((1s,4s)-4-hydroxy-4-methylcyclohexyl)methyl)amino)-3-nitrophenyl)sulfonyl)benzamide] | 1.47 | 117
11 | CC1(C)CC(c2ccc(Cl)cc2)=C2CN3CCN(c4ccc(C(=O)NS(=O)(=O)c5ccc(NC[C@H]6CC[C@H](N7CCOCC7)CO6)c([N+](=O)[O-])c5)c(N5CCCOc6nc7[nH]ccc7cc65)c4)C[C@H]3COCCCO[C@@H]2C1 [Example 37, 4-((4aS,10aR)-14-(4-chlorophenyl)-12,12-dimethyl-1,2,4a,5,8,9,10a,11,13,15-decahydro-7H,12H-benzo[f]pyrazino[2,1-c][1,8]dioxa[4]azacycloundecin-3(4H)-yl)-2-(3,4-dihydro-2H-pyrrolo[3′,2′:5,6]pyrido[2,3-b][1,4]oxazepin-1(7H)-yl)-N-((4-((((2R,5S)-5-morpholinotetrahydro-2H-pyran-2-yl)methyl)amino)-3-nitrophenyl)sulfonyl)benzamide] | 1.05 | 1450
